Experiments:
[1] = target: T1, B1R receptor of the rat (rB1R) (Rattus norvegicus, UniProt P97583); assay: Functional FLIPR Ca2+ assay on the bradykinin 1 receptor, rat (rB1R CHO K1 cells); format: cell-based; settings: test substance 10 μM; CHO K1 cells transfected with rat B1R gene; agonist Des-Arg9-bradykinin at EC80; % inhibition compared with maximum achievable inhibition; read-out: B1R antagonism, rat [10 μM] % inhibition
T1 construct: expressed in transfected cells; host or cells: CHO K1 cells (Chinese hamster ovary), stably transfected
T1 sequence (P97583 1-337): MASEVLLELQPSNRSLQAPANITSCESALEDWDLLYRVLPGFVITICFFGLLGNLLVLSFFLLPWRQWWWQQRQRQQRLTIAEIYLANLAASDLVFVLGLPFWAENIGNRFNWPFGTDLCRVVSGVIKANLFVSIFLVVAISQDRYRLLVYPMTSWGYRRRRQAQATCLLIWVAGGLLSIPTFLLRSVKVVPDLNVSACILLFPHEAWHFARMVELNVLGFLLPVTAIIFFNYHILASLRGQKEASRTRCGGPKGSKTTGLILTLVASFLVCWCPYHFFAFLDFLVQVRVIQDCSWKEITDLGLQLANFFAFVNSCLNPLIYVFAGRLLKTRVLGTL
In short: (§1)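 Stably transfected CHO K1 cells expressing human or rat B1R, Fluo-4-loaded, Ca2+ influx read by FLIPR (peak fluorescence). Compounds (10 μM for % activation) preincubated 10-20 min, then EC80 agonist added: Lys-Des-Arg9-bradykinin for human, Des-Arg9-bradykinin for rat; % inhibition versus maximal inhibition, IC50 from concentration series.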

[2] = target: T2, human B1R receptor (hB1R) (Homo sapiens, UniProt P46663); assay: Functional FLIPR Ca2+ assay on the bradykinin 1 receptor, human (hB1R CHO K1 cells); format: cell-based; settings: test substance 10 μM; CHO K1 cells transfected with human B1R gene; agonist Lys-Des-Arg9-bradykinin at EC80; % inhibition compared with maximum achievable inhibition; read-out: B1R antagonism, human (10 μM] % inhibition
T2 construct: expressed in transfected cells; host or cells: CHO K1 cells (Chinese hamster ovary), stably transfected
T2 sequence (P46663 1-353): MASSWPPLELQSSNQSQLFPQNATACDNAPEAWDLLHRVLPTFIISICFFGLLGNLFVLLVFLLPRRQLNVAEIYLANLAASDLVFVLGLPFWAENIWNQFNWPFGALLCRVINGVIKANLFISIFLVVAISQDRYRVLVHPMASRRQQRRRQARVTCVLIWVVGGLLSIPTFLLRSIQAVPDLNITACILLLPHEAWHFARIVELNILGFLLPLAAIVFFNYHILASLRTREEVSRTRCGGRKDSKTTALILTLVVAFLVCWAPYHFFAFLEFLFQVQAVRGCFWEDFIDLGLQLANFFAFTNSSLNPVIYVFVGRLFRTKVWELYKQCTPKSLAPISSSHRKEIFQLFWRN
In short: as §1

inhibition at 10 µM [1] [%] | inhibition at 10 µM [2] [%] | Compound
99 | 85 | COc1cc(C)c(S(=O)(=O)N2CCCCC2COCC(=O)N2CCc3onc(C(=O)N4CCCCC4)c3C2)c(C)c1 (stereo not drawn) [Example 14, 2-((1-(4-methoxy-2,6-dimethylphenylsulfonyl)piperidin-2-yl)methoxy)-1-(3-(piperidin-1-carbonyl)-6,7-dihydroisoxazolo[4,5-c]pyridin-5(4H)-yl)ethanone]
105 | 78 | Cc1cccc(C2c3ccsc3CCN2C(=O)CCC2CCCCN2S(=O)(=O)c2cc(C)c(Cl)cc2C)c1 (stereo not drawn) [Example 10, 3-(1-(4-chloro-2,5-dimethylphenylsulfonyl)piperidin-2-yl)-1-(4-m-tolyl-6,7-dihydrothieno[3,2-c]pyridin-5(4H)-yl)propan-1-one]
104 | 69 | COc1cc(C)c(S(=O)(=O)N2CCCCC2COCC(=O)N2CCc3sccc3C2c2ccc(C)cc2)c(C)c1 (stereo not drawn) [Example 07, 2-((1-(4-methoxy-2,6-dimethylphenylsulfonyl)piperidin-2-yl)methoxy)-1-(4-p-tolyl-6,7-dihydrothieno[3,2-c]pyridin-5(4H)-yl)ethanone]
59 | 83 | CN1CCN(Cc2cc3c(s2)CCN(C(=O)CC2CCCCN2S(=O)(=O)c2cccc(C(F)(F)F)c2)C3)CC1 (stereo not drawn) [Example 44, 1-(2-((4-methylpiperazin-1-yl)methyl)-6,7-dihydrothieno[3,2-c]pyridin-5(4H)-yl)-2-(1-(3-(trifluoromethyl)phenylsulfonyl)piperidin-2-yl)ethan-1-one]
104 | 99 | COc1cc(C)c(S(=O)(=O)N(C)CCOCC(=O)N2CCc3onc(CN(C)C)c3C2)c(C)c1 [Example 32, N-(2-(2-(3-((dimethylamino)methyl)-6,7-dihydroisoxazolo[4,5-c]pyridin-5(4H)-yl)-2-oxoethoxy)ethyl)-4-methoxy-N,2,6-trimethylbenzenesulfonamide]
105 | 100 | COc1cc(C)c(S(=O)(=O)N2CCCCC2COCC(=O)N2CCc3onc(CN4CCCCC4)c3C2)c(C)c1 (stereo not drawn) [Example 09, 2-((1-(4-methoxy-2,6-dimethylphenylsulfonyl)piperidin-2-yl)methoxy)-1-(3-(piperidin-1-ylmethyl)-6,7-dihydroisoxazolo[4,5-c]pyridin-5(4H)-yl)ethanone]
109 | 99 | CCC1c2ccsc2CCN1C(=O)COCCN(C)S(=O)(=O)c1c(C)cc(OC)cc1C (stereo not drawn) [Example 18, N-(2-(2-(4-Ethyl-6,7-dihydrothieno[3,2-c]pyridin-5(4H)-yl)-2-oxoethoxy)ethyl)-4-methoxy-N,2,6-trimethyl benzenesulfonamide]
55 | 49 | O=C(C[C@@H](NS(=O)(=O)c1ccc2ccccc2c1)c1ccccc1)N1CCc2onc(CN3CCCCC3)c2C1 [Example 17, I—N-(3-oxo-1-phenyl-3-(3-(piperidin-1-ylmethyl)-6,7-dihydroisoxazolo[4,5-c]pyridin-5(4H)-yl)propyl)naphthalene-2-sulfonamide]
106 | 100 | Cc1cccc(Cl)c1S(=O)(=O)N(CCOCC(=O)N1CCc2sc(CN3CCCCC3)cc2C1)C1CC1 [Example 60, 2-chloro-N-cyclopropyl-6-methyl-N-[2-[2-oxo-2-[2-(piperidin-1-yl-methyl)-4,5,6,7-tetrahydro-thieno[3,2-c]pyridin-5-yl]-ethoxy]-ethyl]-benzenesulfonic acid amide]
99 | 100 | Cc1cccc(Cl)c1S(=O)(=O)N(CCOCC(=O)N1CCc2sc(CN3CC(F)(F)C3)cc2C1)C1CC1 [Example 57, 2-Chloro-N-cyclopropyl-N-[2-[2-[2-[(3,3-difluoro-azetidin-1-yl)-methyl]-4,5,6,7-tetrahydro-thieno[3,2-c]pyridin-5-yl]-2-oxo-ethoxy]-ethyl]-6-methyl-benzenesulfonic acid amide]
100 | 96 | COc1cc(C)c(S(=O)(=O)N2CCCCC2COCC(=O)N2CCc3sccc3C2c2ccc(F)cc2)c(C)c1 (stereo not drawn) [Example 22, 1-(4-(4-fluorophenyl)-6,7-dihydrothieno[3,2-c]pyridin-5(4H)-yl)-2-((1-(4-methoxy-2,6-dimethylphenylsulfonyl)piperidin-2-yl)methoxy)ethanone]
57 | 93 | Cc1cc(S(=O)(=O)N2CCCCC2CCC(=O)N2CCc3onc(CN4CCCCC4)c3C2)c(C)cc1Cl (stereo not drawn) [Example 06, 3-(1-(4-chloro-2,5-dimethylphenylsulfonyl)piperidin-2-yl)-1-(3-(piperidin-1-ylmethyl)-6,7-dihydroisoxazolo[4,5-c]pyridin-5(4H)-yl)propan-1-one]

— US8268814B2, “Substituted sulfonamide compounds” (Gruenenthal GmbH, priority 2008, dated 2012)
